Results on three compounds are retold here after patent US4263427A, “Monensin urethane derivatives” (priority 1979, dated 1981).

In brackets after ≈: the same amount, converted by molar mass. Structures can show the parent of a compound that is named as a salt.

The test system of one test is Eimeria tenella. Nature of the test: Anti-coccidial effect of monensin urethanes added to the feed of infected chickens (Table 7). It counts as in vivo. Particulars: infected untreated control 3.0, less than 2.5 significant. As for the experimental part: This test utilizes ten chickens per drug group. Ten chickens are employed as a weight control and ten chickens as an infected control. The drug is given 48 hours in advance of the infection. One gm. of the test drug is mixed in a mechanical mixer with a sufficient amount of chicken feed to result in the desired dosage. The infection consists of approximately 200,000 oocysts given orally by pipette. The tests lasts for eleven days and then the surviving birds are autopsied and examined for gross lesions in the ceca. The test birds are rated according to the number of survivors and the number of cecal lesions. The results are expressed as average degree of infection (A.D.I.). An average degree of infection of less than 2.5 is considered to be significant.

For another test, the system named is Treponema hyodysenteriae. Nature of the test: Activity against Treponema hyodysenteriae (MIC, blood agar plates). It counts as cell-based. Particulars: Brachyspira hyodysenteriae, 48 h, 42° C., anaerobic. From the text:
Testing for activity against Treponema hyodysenteriae, a cause of swine dysentery consisted of inoculation of blood agar plates containing a series of two or fourfold dilutions of the monensin urethane derivatives with tenfold dilutions of the T. hyodysenteriae strain.

Test [1] in a line: Oral antihypertensive activity: blood pressure and heart rate (Table 9). The class given is in vivo. From the text: Compounds of formula I, and their pharmaceutically acceptable salts are orally active as antihypertensive agents.
Another test deals with Sarcina lutca 9341. The test is described as follows: Minimum Inhibitory Concentration, agarwell diffusion assay (Table 6). It counts as cell-based. Particulars: Sarcina, 9341, read-out: Minimum Inhibitory Concentration, Sarcina lutca 9341. From the text: (§1) (a) Lowest twofold dilution giving zone of inhibition in the agarwell
(§2) (b) NRRL collection number, all the rest ate ATCC numbers.

A further test has as its system Bacillus sp. E 27859. Described as above. The class given is cell-based. The settings on record: Bacillus, SP.E27859, Bacillus sp. E 27859, read-out: Minimum Inhibitory Concentration.
Source text: as §1, §2

The test system of a further test is Bacillus megaterium 8CU. The test is described as above. The class given is cell-based. Particulars: Priestia megaterium, 8CU, read-out: Minimum Inhibitory Concentration, Bacillus megaterium 8CU.
Source text: as §1, §2

Test [2] concerns Streptococcus faecium 8043. The description is as above. The class given is cell-based. Particulars: Enterococcus faecium, 8043, Streptococcus faecium 8043, read-out: Minimum Inhibitory Concentration.
Source text: as §1, §2

In another test the test system is Staph. aureus 6538. Described as above. It counts as cell-based. Particulars: Staphylococcus aureus, 6538, read-out: Minimum Inhibitory Concentration, Staph. aureus 6538.
Source text: as §1, §2

The subject of another test is Bacillus subtilis 583. Described as above. The settings on record: Bacillus subtilis, 583, Bacillus subtilis 583 (NRRL), read-out: Minimum Inhibitory Concentration. The class given is cell-based.
Source text: as §1, §2

The test system of another test is Bacillus sp. TA 27860. The description is as above. It counts as cell-based. The settings on record: Bacillus, SP.TA27860, Bacillus sp. TA 27860, read-out: Minimum Inhibitory Concentration.
Source text: as §1, §2

The subject of another test is MycoBacterium phiel 355. The test is described as above. The settings on record: Mycobacterium, 355, read-out: Minimum Inhibitory Concentration, MycoBacterium phiel 355. The class given is cell-based.
Source text: as §1, §2

The subject of test [3] is Streptococcus cellulosac 3313. Described as above. Particulars: Streptococcus, 3313, read-out: Minimum Inhibitory Concentration, Streptococcus cellulosac 3313. The class given is cell-based.
Source text: as §1, §2

For test [4], the system named is Paceilomyces variotl 25820. Described as above. It counts as cell-based. Particulars: read-out: Minimum Inhibitory Concentration, Paceilomyces variotl 25820.
Source text: as §1, §2

In a further test the test system is Plasmodium berghei. The test is described as follows: Oral antimalarial activity against Plasmodium berghei in mice. The class given is in vivo. The settings on record: p.o. From the text: Compounds of formula I wherein R4 is aryl, haloaryl or nitroaryl and their pharmaceutically acceptable salts are orally active as antimalarial agents.
For a further test, the system named is rumen fluid. The settings on record: 50 ppm; control 100.

What is called ED50 is the dose at which the effect has come halfway, by size or by number of responders. High values mean weaker potency, low ones greater potency. Take `CCC1(C2OC(C3OC(O)(COC(=O)Nc4ccc(Cl)cc4)C(C)CC3C)CC2C)CCC(C2(C)CCC3(CC(O)C(C)C(C(C)C(OC)C(C)C(=O)O)O3)O2)O1` (stereo not shown) [Monensin A, 4-chlorophenylurethane]: the “Average Degree of Infected (A.D.I.)” value with Eimeria tenella (65 ppm in feed) was found to be 0.8. Moreover, the MIC against Treponema hyodysenteriae is 0.08 µg/mL (≈ 0.097 µM); in the test with Sarcina lutca 9341, 0.2 µg/mL (≈ 0.243 µM); with Bacillus sp. E 27859 it was 0.02 µg/mL (≈ 0.0243 µM); in the test with Bacillus megaterium 8CU it was 0.2 µg/mL (≈ 0.243 µM); in test [2] it was 0.05 µg/mL (≈ 0.0606 µM); with Staph. aureus 6538, 0.4 µg/mL (≈ 0.485 µM). In addition, the MIC in the test on Bacillus subtilis 583 was found to be 0.4 µg/mL (≈ 0.485 µM); in the test with Bacillus sp. TA 27860, 0.2 µg/mL (≈ 0.243 µM); in the test on MycoBacterium phiel 355, 0.8 µg/mL (≈ 0.97 µM); in [3], 0.8 µg/mL (≈ 0.97 µM); in test [4], 3.1 µg/mL (≈ 3.76 µM). Further, the “Day of Maximum Change, Blood Pressure” value in test [1] (oral dose 1 mg/kg) was 5 days. Besides, the “Day of Maximum Change, Heart Rate” value in test [1] (oral dose 1 mg/kg) came to 5 days. The “Maximum Change (%), Blood Pressure” value in test [1] (oral dose 1 mg/kg) is reported as 20%. In addition, in test [1] (oral dose 1 mg/kg), the “Maximum Change (%), Heart Rate” value was found to be 19%. The “Mean Blood Pressure at time of maximum effect” value (“Mean Blood Pressure at time” for short) in test [1] (oral dose 1 mg/kg) is 179 mm Hg. Also, the “Mean Blood Pressure before treatment” value in test [1] (oral dose 1 mg/kg) was 224 mm Hg. In the test with Plasmodium berghei, this compound came in with an ED50 of 2.3 mg/kg.
As to `CCC1(C2OC(C3OC(O)(COC(=O)Nc4ccc(Br)cc4)C(C)CC3C)CC2C)CCC(C2(C)CCC3(CC(O)C(C)C(C(C)C(OC)C(C)C(=O)O)O3)O2)O1` (stereo not shown) [Monensin A, 4-bromophenylurethane, 4-bromophenylaminocarbonyloxy-(0-11)-monensin, sodium salt], the “Average Degree of Infected (A.D.I.)” value in the test on Eimeria tenella (75 ppm in feed) came to 0.7. Besides, the “Rate of Gas Production, Percent Production of Control Fermentations” value with rumen fluid is reported as 103.0%. Further, the “Total VFA, Percent Production of Control Fermentations” value in the test on rumen fluid stood at 89.9%. Further, the MIC against Treponema hyodysenteriae was found to be 0.4 µg/mL; in the test on Sarcina lutca 9341, 0.2 µg/mL; in the test on Bacillus sp. E 27859, 0.05 µg/mL; in the test on Bacillus megaterium 8CU it was 0.1 µg/mL; in test [2] it was 0.1 µg/mL; in the test with Staph. aureus 6538, 0.8 µg/mL. Besides, the MIC with Bacillus subtilis 583 is 0.4 µg/mL; with Bacillus sp. TA 27860, 0.2 µg/mL; in the test on MycoBacterium phiel 355, 1.6 µg/mL; in [3] it was 0.8 µg/mL; in test [4], 1.6 µg/mL. Further, the “Day of Maximum Change, Blood Pressure” value in [1] (oral dose 1 mg/kg) came out at 2 days. Further, the “Maximum Change (%), Blood Pressure” value in test [1] (oral dose 1 mg/kg) came to 21%. Besides, in test [1] (oral dose 1 mg/kg), the “Mean Blood Pressure at time” value stood at 178 mm Hg. The “Mean Blood Pressure before treatment” value in test [1] (oral dose 1 mg/kg) came out at 225 mm Hg. The ED50 in the test on Plasmodium berghei was in the range of 15 to 20 mg/kg.
As to `CCC1(C2OC(C3OC(O)(COC(=O)Nc4ccccc4)C(C)CC3C)CC2C)CCC(C2(C)CCC3(CC(O)C(C)C(C(C)C(OC)C(C)C(=O)O)O3)O2)O1` (stereo not shown) [Monensin A, phenylurethane], the “Average Degree of Infected (A.D.I.)” value with Eimeria tenella (75 ppm in feed) is reported as 0.9. The MIC against Treponema hyodysenteriae is 0.08 to 0.4 µg/mL (≈ 0.101 to 0.506 µM); in the test on Sarcina lutca 9341, 0.8 µg/mL (≈ 1.01 µM); with Bacillus sp. E 27859 it was 0.05 µg/mL (≈ 0.0633 µM); in the test on Bacillus megaterium 8CU, 0.4 µg/mL (≈ 0.506 µM); in [2], 0.1 µg/mL (≈ 0.127 µM); with Staph. aureus 6538 it was 0.8 µg/mL (≈ 1.01 µM). The MIC turned out to be 0.4 µg/mL (≈ 0.506 µM) with Bacillus subtilis 583; 0.4 µg/mL (≈ 0.506 µM) in the test on Bacillus sp. TA 27860; 3.1 µg/mL (≈ 3.92 µM) in the test with MycoBacterium phiel 355; 3.1 µg/mL (≈ 3.92 µM) in test [3]; 3.1 µg/mL (≈ 3.92 µM) in test [4]. For the same compound, the “Day of Maximum Change, Blood Pressure” value in test [1] (oral dose 10 mg/kg) is 2 days. Also, the “Maximum Change (%), Blood Pressure” value in [1] (oral dose 10 mg/kg) came to 26%. In test [1] (oral dose 10 mg/kg), the “Mean Blood Pressure at time” value is 170 mm Hg. Moreover, in test [1] (oral dose 10 mg/kg), the “Mean Blood Pressure before treatment” value worked out at 229 mm Hg. In addition, in the test on Plasmodium berghei, it took a dose of 4 mg/kg to reach the 50% effect level (ED50).
